Data set [1] is described as follows: pKa value was determined. The format is physicochemical.
Data set [2] can be described thus: Chemical half-life was evaluated at 37 degree C expressed as stability towards hydrolysis. The format is physicochemical.
For data set [3], the target named is T1, Neutrophil elastase (Homo sapiens) (UniProt P08246).
T1 sequence (whole entry): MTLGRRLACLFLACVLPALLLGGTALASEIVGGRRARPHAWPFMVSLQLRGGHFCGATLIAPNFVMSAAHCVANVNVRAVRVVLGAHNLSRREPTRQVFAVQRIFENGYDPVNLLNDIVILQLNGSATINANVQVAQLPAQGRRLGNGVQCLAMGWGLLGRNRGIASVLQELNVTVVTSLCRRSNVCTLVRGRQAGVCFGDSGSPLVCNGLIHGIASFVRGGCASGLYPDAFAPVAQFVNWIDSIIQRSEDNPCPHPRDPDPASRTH
Put plainly: Inhibition of human leukocyte elastase II (HLE-II) as second order rate constant.

On to `CO[C@H]1C(=O)N2C(C(=O)c3ccccc3)=C(CSc3nnnn3C)CS(=O)(=O)[C@H]12`, for which the pKa – broadly, the pH at which an ionisable group is half protonated – in data set [1] was 8.4. Also, the half-life – broadly, how long it takes for the measured level to halve – in data set [2] was 8.6 h.

On to `CO[C@H]1C(=O)N2C(C(=O)c3ccccc3)=C(C)C(Sc3nc(=O)c(=O)[nH]n3C)S(=O)(=O)[C@H]12` (some centres not stated), for which, in data set [1], the pKa was determined as 5.7. The k on in data set [3] was 930 M⁻¹ s⁻¹. The half-life in data set [2] is 86 h.

On to `CO[C@H]1C(=O)N2C(C(=O)C(C)(C)C)=C(CSc3nnnn3C)CS(=O)(=O)[C@H]12`, for which the pKa in data set [1] was found to be 11.6. In data set [2], the half-life was 24 h.

Compound `CO[C@H]1C(=O)N2C(C(=O)C(C)(C)C)=C(C)CS(=O)(=O)[C@H]12` showed a half-life in data set [2] of 130 h.

`CO[C@H]1C(=O)N2C(C(=O)C(C)(C)C)=C(C)C(Sc3nnnn3C)S(=O)(=O)[C@H]12` (some centres not stated): the pKa in data set [1] was found to be 7.9. Besides, in data set [3], the k on is 100000 M⁻¹ s⁻¹. For the same compound, in data set [2], the half-life was 14.8 h.

With `CO[C@H]1C(=O)N2C(C(=O)c3ccccc3)=C(C)CS(=O)(=O)[C@H]12`, in data set [1], the pKa came to 9.6. In data set [2], the half-life was 33 h.

Consider `CO[C@H]1C(=O)N2C(C(=O)c3ccccc3)=C(CSc3nnnn3C)C(Sc3nnnn3C)S(=O)(=O)[C@H]12` (some centres not stated), for which the pKa in data set [1] was 3.5. Besides, the half-life in data set [2] was 850 h.

The compound `CO[C@H]1C(=O)N2C(C(=O)C(C)(C)C)=C(CSc3nnc(C)s3)CS(=O)(=O)[C@H]12` displayed a pKa in data set [1] of 11.9. Besides, the k on in data set [3] came out at 32000 M⁻¹ s⁻¹. For the same compound, in data set [2], the half-life is 37 h.

The compound `CO[C@H]1C(=O)N2C(C(=O)C(C)(C)C)=C(CSc3nnnn3C)C(Sc3nnnn3C)S(=O)(=O)[C@H]12` (some centres not stated) gave a pKa in data set [1] of 6. In data set [2], this compound gave a half-life of 24 h.

For `CO[C@H]1C(=O)N2C(C(=O)C(C)(C)C)=C(C)C(Sc3nnc(C)s3)S(=O)(=O)[C@H]12` (some centres not stated), the pKa in data set [1] came out at 7.5. The same compound had a k on in data set [3] of 42000 M⁻¹ s⁻¹. The same compound gave a half-life in data set [2] of 26 h.

Compound `CO[C@H]1C(=O)N2C(C(=O)C(C)(C)C)=C(CSc3nnc(C)s3)C(Sc3nnc(C)s3)S(=O)(=O)[C@H]12` (some centres not stated) showed a pKa in data set [1] of 5.8. In data set [3], this compound showed a k on of 21000 M⁻¹ s⁻¹. Also, the half-life in data set [2] was 46 h.

The compound `CO[C@H]1C(=O)N2C(C(=O)c3ccccc3)=C(C)C(Sc3nnnn3C)S(=O)(=O)[C@H]12` (some centres not stated) had a pKa in data set [1] of 4.8. Further, the k on in data set [3] came to 200 M⁻¹ s⁻¹. Moreover, the half-life in data set [2] is 120 h.

In turn, `CO[C@H]1C(=O)N2C(C(=O)C(C)(C)C)=C(C)C(Sc3nc(=O)c(=O)[nH]n3C)S(=O)(=O)[C@H]12` (some centres not stated) yielded a pKa in data set [1] of 8.9. Moreover, the k on in data set [3] stood at 54000 M⁻¹ s⁻¹. Moreover, the half-life in data set [2] is 16.3 h.

For the origin of these results see ChEMBL document CHEMBL1151566, “Cephem sulfones as inactivators of human leukocyte elastase. II. Keto-enol tautomerish in cephem-4-ketones” (Bioorg Med Chem Lett, 1992).
